Source: patent publication US9340590B2 (priority 2011, dated 2016)
Read-outs that look alike come from different tables or passages of the source. Positions of bridges follow the written chain, without caps; N, C: chain ends. Non-standard residues stand in square brackets, D forms with d. Residues, ends and D or L forms follow the SMILES beside them. *: point of attachment. 2Nal = N[C@@H](Cc1ccc2ccccc2c1)C(=O)O; Cha = N[C@@H](CC1CCCCC1)C(=O)O; Pent4ynoyl = C#CCCC(=O)*; Abu = CC[C@H](N)C(=O)O

Tests used:
Test in all cases: cell-based
hNav1.7 = hNav1.7 (Homo sapiens, UniProt Q15858); assay type: cell-based; details: IonWorks Quattro
hNav1.5 = hNav1.5 (Homo sapiens, UniProt Q14524); details: IonWorks Quattro, read-out: IWQ Use Nav1.5
Chain of hNav1.5 (Q14524 whole entry, looked up): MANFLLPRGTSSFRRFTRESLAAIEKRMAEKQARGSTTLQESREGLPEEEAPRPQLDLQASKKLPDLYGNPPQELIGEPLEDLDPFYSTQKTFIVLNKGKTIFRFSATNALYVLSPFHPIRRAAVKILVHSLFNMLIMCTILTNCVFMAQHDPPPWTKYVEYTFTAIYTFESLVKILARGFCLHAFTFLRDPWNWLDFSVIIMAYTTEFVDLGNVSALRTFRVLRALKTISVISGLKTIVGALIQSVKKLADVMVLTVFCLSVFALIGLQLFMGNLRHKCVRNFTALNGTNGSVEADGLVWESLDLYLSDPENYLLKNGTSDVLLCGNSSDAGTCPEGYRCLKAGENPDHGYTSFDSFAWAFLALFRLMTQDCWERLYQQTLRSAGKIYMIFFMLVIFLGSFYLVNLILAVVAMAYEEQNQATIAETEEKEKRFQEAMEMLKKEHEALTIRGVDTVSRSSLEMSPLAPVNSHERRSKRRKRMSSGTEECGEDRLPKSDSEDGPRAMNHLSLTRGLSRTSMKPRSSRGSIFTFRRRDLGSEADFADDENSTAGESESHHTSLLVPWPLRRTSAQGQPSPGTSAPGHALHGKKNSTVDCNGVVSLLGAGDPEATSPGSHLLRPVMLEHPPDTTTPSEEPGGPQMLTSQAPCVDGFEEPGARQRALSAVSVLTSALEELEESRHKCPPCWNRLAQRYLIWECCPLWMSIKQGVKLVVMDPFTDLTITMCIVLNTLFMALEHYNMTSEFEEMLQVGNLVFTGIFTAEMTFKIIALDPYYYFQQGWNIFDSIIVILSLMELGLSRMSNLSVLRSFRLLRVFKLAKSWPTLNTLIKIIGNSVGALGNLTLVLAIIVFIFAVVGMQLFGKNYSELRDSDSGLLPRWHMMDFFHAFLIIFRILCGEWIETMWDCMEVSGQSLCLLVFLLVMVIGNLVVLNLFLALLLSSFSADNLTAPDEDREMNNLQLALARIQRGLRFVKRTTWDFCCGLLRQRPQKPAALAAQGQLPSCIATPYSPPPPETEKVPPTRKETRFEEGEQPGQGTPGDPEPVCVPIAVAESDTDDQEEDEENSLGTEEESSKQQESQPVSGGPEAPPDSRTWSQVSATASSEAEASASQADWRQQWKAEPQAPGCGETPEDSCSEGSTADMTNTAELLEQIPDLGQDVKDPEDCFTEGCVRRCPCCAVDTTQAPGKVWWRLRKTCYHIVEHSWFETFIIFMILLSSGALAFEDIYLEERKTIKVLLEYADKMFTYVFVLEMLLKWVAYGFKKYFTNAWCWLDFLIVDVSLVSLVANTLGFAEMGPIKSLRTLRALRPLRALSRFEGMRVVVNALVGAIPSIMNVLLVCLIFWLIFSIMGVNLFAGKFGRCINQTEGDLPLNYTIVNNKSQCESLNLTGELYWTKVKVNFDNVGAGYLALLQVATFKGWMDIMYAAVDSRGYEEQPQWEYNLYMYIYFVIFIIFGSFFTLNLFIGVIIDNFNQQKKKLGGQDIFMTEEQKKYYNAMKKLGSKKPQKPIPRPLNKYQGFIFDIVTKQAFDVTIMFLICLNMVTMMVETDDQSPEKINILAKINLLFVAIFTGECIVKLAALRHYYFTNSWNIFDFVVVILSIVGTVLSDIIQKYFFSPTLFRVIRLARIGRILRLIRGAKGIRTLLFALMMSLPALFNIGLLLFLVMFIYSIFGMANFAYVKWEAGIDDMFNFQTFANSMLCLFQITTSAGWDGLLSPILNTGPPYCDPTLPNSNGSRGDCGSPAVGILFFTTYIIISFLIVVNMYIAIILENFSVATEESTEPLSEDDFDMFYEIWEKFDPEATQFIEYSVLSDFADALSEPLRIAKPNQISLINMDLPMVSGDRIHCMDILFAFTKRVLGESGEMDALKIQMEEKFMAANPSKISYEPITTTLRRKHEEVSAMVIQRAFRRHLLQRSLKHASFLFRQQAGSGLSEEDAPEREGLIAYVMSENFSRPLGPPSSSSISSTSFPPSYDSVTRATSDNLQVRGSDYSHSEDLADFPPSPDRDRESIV

hNav1.3 = hNav1.3 (Homo sapiens, UniProt Q9NY46); details: IonWorks Quattro, read-out: IWQ Use Nav1.3
Chain of hNav1.3 (Q9NY46 whole entry, looked up): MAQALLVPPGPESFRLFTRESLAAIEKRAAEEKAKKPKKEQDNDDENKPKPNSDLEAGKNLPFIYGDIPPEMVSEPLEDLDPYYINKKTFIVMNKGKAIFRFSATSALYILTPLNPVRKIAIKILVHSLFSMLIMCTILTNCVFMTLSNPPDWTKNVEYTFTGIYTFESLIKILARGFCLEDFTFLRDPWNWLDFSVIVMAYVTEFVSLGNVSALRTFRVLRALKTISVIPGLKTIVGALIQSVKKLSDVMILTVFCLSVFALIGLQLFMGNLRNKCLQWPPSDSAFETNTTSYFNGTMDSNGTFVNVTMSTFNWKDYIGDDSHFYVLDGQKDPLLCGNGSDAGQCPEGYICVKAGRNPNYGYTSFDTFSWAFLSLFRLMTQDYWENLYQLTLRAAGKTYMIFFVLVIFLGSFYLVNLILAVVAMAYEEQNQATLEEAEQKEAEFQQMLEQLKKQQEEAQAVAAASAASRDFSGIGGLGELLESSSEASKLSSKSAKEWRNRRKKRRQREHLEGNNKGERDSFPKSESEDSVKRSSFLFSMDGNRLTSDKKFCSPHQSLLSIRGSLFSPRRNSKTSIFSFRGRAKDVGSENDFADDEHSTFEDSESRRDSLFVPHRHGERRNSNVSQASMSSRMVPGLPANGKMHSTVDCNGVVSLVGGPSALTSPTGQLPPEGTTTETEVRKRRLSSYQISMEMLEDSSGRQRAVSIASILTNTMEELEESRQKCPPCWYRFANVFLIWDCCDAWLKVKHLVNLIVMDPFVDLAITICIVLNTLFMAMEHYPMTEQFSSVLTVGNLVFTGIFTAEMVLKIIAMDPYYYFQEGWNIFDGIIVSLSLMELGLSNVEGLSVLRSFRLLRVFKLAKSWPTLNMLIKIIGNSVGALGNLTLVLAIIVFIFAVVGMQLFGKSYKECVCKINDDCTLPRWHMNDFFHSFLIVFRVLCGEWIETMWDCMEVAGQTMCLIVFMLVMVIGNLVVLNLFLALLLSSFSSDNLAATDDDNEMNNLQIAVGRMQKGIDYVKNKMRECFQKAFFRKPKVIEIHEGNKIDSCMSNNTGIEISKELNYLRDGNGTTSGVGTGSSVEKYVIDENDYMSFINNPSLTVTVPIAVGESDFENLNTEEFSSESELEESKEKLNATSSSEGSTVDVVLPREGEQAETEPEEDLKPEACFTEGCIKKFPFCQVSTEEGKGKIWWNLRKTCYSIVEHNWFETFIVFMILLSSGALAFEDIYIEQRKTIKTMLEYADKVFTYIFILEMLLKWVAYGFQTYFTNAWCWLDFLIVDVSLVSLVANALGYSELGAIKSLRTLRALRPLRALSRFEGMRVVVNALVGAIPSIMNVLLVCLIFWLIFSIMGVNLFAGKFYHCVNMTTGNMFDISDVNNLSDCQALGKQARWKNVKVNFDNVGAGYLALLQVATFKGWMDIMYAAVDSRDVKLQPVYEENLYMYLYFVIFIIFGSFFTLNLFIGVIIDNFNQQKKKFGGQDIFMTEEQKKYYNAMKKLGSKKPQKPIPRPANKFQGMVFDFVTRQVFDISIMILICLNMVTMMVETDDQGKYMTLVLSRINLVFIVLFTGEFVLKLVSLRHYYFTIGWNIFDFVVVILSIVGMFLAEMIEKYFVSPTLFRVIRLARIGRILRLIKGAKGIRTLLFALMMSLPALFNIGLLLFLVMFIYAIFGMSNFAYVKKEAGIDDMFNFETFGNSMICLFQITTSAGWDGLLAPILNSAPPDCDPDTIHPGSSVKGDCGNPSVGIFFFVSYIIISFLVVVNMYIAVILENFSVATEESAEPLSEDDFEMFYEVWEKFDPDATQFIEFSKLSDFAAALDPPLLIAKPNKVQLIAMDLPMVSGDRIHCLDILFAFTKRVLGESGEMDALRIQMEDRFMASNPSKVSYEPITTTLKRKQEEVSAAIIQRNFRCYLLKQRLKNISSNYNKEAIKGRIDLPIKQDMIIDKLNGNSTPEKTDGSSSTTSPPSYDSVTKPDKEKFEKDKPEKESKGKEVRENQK

[1] = use-dependent block, hNav1.7, read-out: IWQ Use Nav1.7

Q: Which IC50 (hNav1.7; [1]) does the source give for `C#CCCC(=O)NCCCC[C@@H]1NC(=O)[C@H](CC(=O)O)NC(=O)[C@@H]2CCCN2C(=O)[C@H]([C@@H](C)CC)NC(=O)[C@@H]2CSSC[C@@H]3NC(=O)[C@H](C(C)C)NC(=O)[C@H](CC(C)C)NC(=O)[C@H](CC(N)=O)NC(=O)[C@@H]4CCCN4C(=O)[C@H](CCCNC(=N)N)NC(=O)[C@H](CSSC[C@H](NC(=O)[C@@H](N)CC(=O)O)C(=O)N[C@@H](CC(C)C)C(=O)NCC(=O)N[C@@H](CC)C(=O)N[C@@H](CC(C)C)C(=O)N[C@@H](CCCNC(=N)N)C(=O)N[C@@H](CCCCN)C(=O)N2)NC(=O)[C@H](CSSC[C@@H](C(=O)N[C@@H](CCCCN)C(=O)N[C@@H](Cc2ccc(O)cc2)C(=O)N[C@H](C(=O)N[C@@H](Cc2ccccc2)C(N)=O)C(C)C)NC(=O)[C@H](Cc2c[nH]c4ccccc24)NC(=O)[C@H](CCCNC(=N)N)NC(=O)[C@H](Cc2c[nH]cn2)NC(=O)[C@H]([C@@H](C)O)NC(=O)[C@H](CCCNC(=N)N)NC(=O)[C@H](CO)NC3=O)NC(=O)[C@H](CCCCN)NC(=O)[C@H](CC(=O)O)NC1=O` [compound 801] (H-DCLG[Abu]LRKCIPDK(Pent4ynoyl)DKCCRPNLVCSRTHRWCKYVF-NH2; disulfide 2-17, 9-23, 16-30) here?
A: Its IC50 is 550 nM.

Q: And the IC50 (hNav1.5; use-dependent block, hNav1.5)?
A: The IC50 was 39700 nM.

Q: And the IC50 (hNav1.3; use-dependent block, hNav1.3)?
A: Its IC50 is 810 nM.

Q: For `CC[C@H](C)[C@@H]1NC(=O)[C@@H]2CSSC[C@@H]3NC(=O)[C@H](C(C)C)NC(=O)[C@H](CC(C)C)NC(=O)[C@H](CC(N)=O)NC(=O)[C@@H]4CCCN4C(=O)[C@H](CCCNC(=N)N)NC(=O)[C@H](CSSC[C@H](NC(=O)[C@@H](N)CC(=O)O)C(=O)N[C@@H](CC(C)C)C(=O)NCC(=O)N[C@@H](Cc4ccccc4)C(=O)N[C@@H](CCSC)C(=O)N[C@@H](CCCNC(=N)N)C(=O)N[C@@H](CCCCN)C(=O)N2)NC(=O)[C@H](CSSC[C@@H](C(=O)N[C@@H](CCCCN)C(=O)N[C@@H](Cc2ccc(O)cc2)C(=O)N[C@@H](CC2CCCCC2)C(=O)N[C@@H](Cc2ccccc2)C(N)=O)NC(=O)[C@H](Cc2c[nH]c4ccccc24)NC(=O)[C@H](CCCCN)NC(=O)[C@H](Cc2c[nH]cn2)NC(=O)[C@H]([C@@H](C)O)NC(=O)[C@H](CCCNC(=N)N)NC(=O)[C@H](CO)NC3=O)NC(=O)[C@H](CCCCN)NC(=O)[C@H](CC(=O)O)NC(=O)[C@H](CC(N)=O)NC(=O)[C@H](CC(=O)O)NC(=O)[C@@H]2CCCN2C1=O` [compound 386] (H-DCLGFMRKCIPDNDKCCRPNLVCSRTHKWCKY[Cha]F-NH2; disulfide 2-17, 9-23, 16-30), which IC50 (hNav1.7; Table 26, use, […], read-out: IWQ Use Nav1.7) is on record?
A: Its IC50 is 70 nM.

Q: What about the IC50 (hNav1.5; Table 26, use, […]) of the same compound?
A: Its IC50 is 12200 nM.

Q: And the IC50 (hNav1.3; Table 26, use, […])?
A: The IC50 was 70 nM.

Q: Which IC50 (hNav1.7; Use, read-out: IWQ Use Nav1.7) does the source give for `CC[C@H](C)[C@@H]1NC(=O)[C@@H]2CSSC[C@@H]3NC(=O)[C@H](C(C)C)NC(=O)[C@H](CC(C)C)NC(=O)[C@H](CC(N)=O)NC(=O)[C@@H]4CCCN4C(=O)[C@H](CCCNC(=N)N)NC(=O)[C@H](CSSC[C@H](NC(=O)[C@@H](N)CC(=O)O)C(=O)N[C@@H](CC(C)C)C(=O)NCC(=O)N[C@@H](Cc4ccccc4)C(=O)N[C@@H](CCSC)C(=O)N[C@@H](CCCNC(=N)N)C(=O)N[C@@H](CCCCN)C(=O)N2)NC(=O)[C@H](CSSC[C@@H](C(=O)N[C@@H](CCCCN)C(=O)N[C@@H](Cc2ccc(O)cc2)C(=O)N[C@H](C(=O)N[C@@H](Cc2ccccc2)C(N)=O)C(C)C)NC(=O)[C@H](Cc2c[nH]c4ccccc24)NC(=O)[C@H](CCCCN)NC(=O)[C@H](Cc2cnc[nH]2)NC(=O)[C@H]([C@@H](C)O)NC(=O)[C@H](CCCNC(=N)N)NC(=O)[C@H](CO)NC3=O)NC(=O)[C@H](CCCCN)NC(=O)[C@H](CC(=O)O)NC(=O)[C@H](CC(N)=O)NC(=O)[C@H](Cc2c[nH]c3ccccc23)NC(=O)[C@@H]2CCCN2C1=O` [compound 172] (H-DCLGFMRKCIPWNDKCCRPNLVCSRTHKWCKYVF-NH2; disulfide 2-17, 9-23, 16-30) here?
A: The IC50 was 50 nM.

Q: What about the IC50 (hNav1.5; Use) of the same compound?
A: Its IC50 is 8040 nM.

Q: And the IC50 (hNav1.3; Use)?
A: Its IC50 is 40 nM.

Q: Which results are given for `CC[C@H](C)[C@@H]1NC(=O)[C@@H]2CSSC[C@@H]3NC(=O)[C@H](C(C)C)NC(=O)[C@H](CC(C)C)NC(=O)[C@H](CC(N)=O)NC(=O)[C@@H]4CCCN4C(=O)[C@H](CCCNC(=N)N)NC(=O)[C@H](CSSC[C@H](NC(=O)[C@@H](N)CC(=O)O)C(=O)N[C@@H](CC(C)C)C(=O)NCC(=O)N[C@@H](Cc4ccccc4)C(=O)N[C@@H](CCSC)C(=O)N[C@@H](CCCNC(=N)N)C(=O)N[C@@H](CCCCN)C(=O)N2)NC(=O)[C@H](CSSC[C@@H](C(=O)N[C@@H](CCCCN)C(=O)N[C@@H](Cc2ccc(O)cc2)C(=O)N[C@H](C(=O)N[C@@H](Cc2ccccc2)C(N)=O)C(C)C)NC(=O)[C@H](CC(C)C)NC(=O)[C@H](CCCCN)NC(=O)[C@H](Cc2c[nH]cn2)NC(=O)[C@H]([C@@H](C)O)NC(=O)[C@H](CCCNC(=N)N)NC(=O)[C@H](CO)NC3=O)NC(=O)[C@H](CCCCN)NC(=O)[C@H](CC(=O)O)NC(=O)[C@H](CC(N)=O)NC(=O)[C@H](CC(=O)O)NC(=O)[C@@H]2CCCN2C1=O` [compound 114] (H-DCLGFMRKCIPDNDKCCRPNLVCSRTHKLCKYVF-NH2; disulfide 2-17, 9-23, 16-30)?
A: IC50 (hNav1.7; Table 24, use, […], read-out: IWQ Use Nav1.7): 6990 nM; IC50 (hNav1.5; Table 24, use, […]): 7270 nM; IC50 (hNav1.3; Table 24, use, […]): 9800 nM

Q: With `CC[C@H](C)[C@@H]1NC(=O)[C@@H]2CSSC[C@@H]3NC(=O)[C@H](C(C)C)NC(=O)[C@H](CC(C)C)NC(=O)[C@H](CC(N)=O)NC(=O)[C@@H]4CCCN4C(=O)[C@H](CCCNC(=N)N)NC(=O)[C@H](CSSC[C@H](NC(=O)[C@@H](N)CC(=O)O)C(=O)N[C@@H](CC(C)C)C(=O)NCC(=O)N[C@@H](Cc4ccccc4)C(=O)N[C@@H](CCSC)C(=O)N[C@@H](CCCNC(=N)N)C(=O)N[C@@H](CCCCN)C(=O)N2)NC(=O)[C@H](CSSC[C@@H](C(=O)N[C@@H](CCCCN)C(=O)N[C@@H](Cc2ccccc2)C(=O)N[C@H](C(=O)N[C@@H](Cc2ccccc2)C(N)=O)C(C)C)NC(=O)[C@H](Cc2c[nH]c4ccccc24)NC(=O)[C@H](CCCCN)NC(=O)[C@H](Cc2c[nH]cn2)NC(=O)[C@H]([C@@H](C)O)NC(=O)[C@H](CCCNC(=N)N)NC(=O)[C@H](CO)NC3=O)NC(=O)[C@H](CCCCN)NC(=O)[C@H](CC(=O)O)NC(=O)[C@H](CC(N)=O)NC(=O)[C@H](CC(=O)O)NC(=O)[C@@H]2CCCN2C1=O` [compound 377] (H-DCLGFMRKCIPDNDKCCRPNLVCSRTHKWCKFVF-NH2; disulfide 2-17, 9-23, 16-30) as the compound, how does the IC50 (hNav1.7; Table 25, use, […], read-out: IWQ Use Nav1.7) read?
A: Its IC50 is 50 nM.

Q: And the IC50 (hNav1.5; Table 25, use, […])?
A: Its IC50 is 6840 nM.

Q: And the IC50 (hNav1.3; Table 25, use, […])?
A: The IC50 was 50 nM.

Q: Which IC50 (hNav1.7; use-dependent, […], read-out: IWQ Use Nav1.7 (μm)) does the source give for `CC[C@H](C)[C@@H]1NC(=O)[C@@H]2CSSC[C@@H]3NC(=O)[C@H](C(C)C)NC(=O)[C@H](CC(C)C)NC(=O)[C@H](CC(N)=O)NC(=O)[C@@H]4CCCN4C(=O)[C@H](CCCNC(=N)N)NC(=O)[C@H](CSSC[C@H](NC(=O)[C@@H](N)CC(=O)O)C(=O)N[C@@H](CC(C)C)C(=O)NCC(=O)N[C@@H](Cc4ccccc4)C(=O)N[C@@H](CCSC)C(=O)N[C@@H](CCCNC(=N)N)C(=O)N[C@@H](CCCCN)C(=O)N2)NC(=O)[C@H](CSSC[C@@H](C(=O)N[C@@H](CCCCN)C(=O)N[C@@H](Cc2ccc(O)cc2)C(=O)N[C@H](C(=O)N[C@@H](Cc2ccccc2)C(=O)N[C@@H](Cc2c[nH]c4ccccc24)C(=O)O)C(C)C)NC(=O)[C@H](Cc2c[nH]c4ccccc24)NC(=O)[C@H](CCCCN)NC(=O)[C@H](Cc2c[nH]cn2)NC(=O)[C@H]([C@@H](C)O)NC(=O)[C@H](CCCNC(=N)N)NC(=O)[C@H](CO)NC3=O)NC(=O)[C@H](CCCCN)NC(=O)[C@H](CC(=O)O)NC(=O)[C@H](CC(N)=O)NC(=O)[C@H](CC(=O)O)NC(=O)[C@@H]2CCCN2C1=O` [compound 133] here?
A: Its IC50 is 480 nM.

Q: And the IC50 (hNav1.5; use-dependent, […])?
A: The IC50 was 8280 nM.

Q: And the IC50 (hNav1.3; use-dependent, […])?
A: Its IC50 is 110 nM.

Q: Which results are given for `CC[C@H](C)[C@@H]1NC(=O)[C@@H]2CSSC[C@@H]3NC(=O)[C@H](C(C)C)NC(=O)[C@H](CC(C)C)NC(=O)[C@H](CC(N)=O)NC(=O)[C@@H]4CCCN4C(=O)[C@H](CCCNC(=N)N)NC(=O)[C@H](CSSC[C@H](NC(=O)[C@@H](N)CC(=O)O)C(=O)N[C@@H](CC(C)C)C(=O)NCC(=O)N[C@@H](Cc4ccccc4)C(=O)N[C@@H](CCSC)C(=O)N[C@@H](CCCNC(=N)N)C(=O)N[C@@H](CCCCN)C(=O)N2)NC(=O)[C@H](CSSC[C@@H](C(=O)N[C@@H](CCCCN)C(=O)N[C@@H](Cc2ccc(O)cc2)C(=O)N[C@H](C(=O)N[C@@H](Cc2ccc4ccccc4c2)C(=O)N[C@@H](Cc2c[nH]c4ccccc24)C(N)=O)C(C)C)NC(=O)[C@H](Cc2c[nH]c4ccccc24)NC(=O)[C@H](CCCCN)NC(=O)[C@H](Cc2c[nH]cn2)NC(=O)[C@H]([C@@H](C)O)NC(=O)[C@H](CCCNC(=N)N)NC(=O)[C@H](CO)NC3=O)NC(=O)[C@H](CCCCN)NC(=O)[C@H](CC(=O)O)NC(=O)[C@H](CC(N)=O)NC(=O)[C@H](CC(=O)O)NC(=O)[C@@H]2CCCN2C1=O` [compound 139] (H-DCLGFMRKCIPDNDKCCRPNLVCSRTHKWCKYV[2Nal]W-NH2; disulfide 2-17, 9-23, 16-30)?
A: IC50 (hNav1.7; [1]): 110 nM; IC50 (hNav1.5; use-dependent block, hNav1.5): 2120 nM; IC50 (hNav1.3; use-dependent block, hNav1.3): 50 nM
